Earlier results as cited in patent US20220241165A1, “ORAL CARE COMPOSITIONS COMPRISING OXALIC ACID” (The Procter & Gamble Company, priority 2021, published 2022).

- pKa: 4.1
SMILES: O=C(O)C(=O)O [oxalate ion]
